This assay concerns the target 5-HT2A receptors (Rattus norvegicus, UniProt P14842). Put plainly: in-vitro affinity to 5-HT2A receptors, displacement of [3H]ketanserine (Example A1). In kind it is binding. The source says:
The 5-HT2A receptors are exposed both to [^3H]ketanserine (a substance which is known for its affinity to the receptor) and also to the test compound. The decrease in the affinity of [^3H]ketanserine to the receptor is an indication of the affinity of the test substance to the 5-HT2A receptor.
In general terms: Displacement assays read how much labelled ligand stays bound in the presence of the test substance.

[1] abbreviates: target not given, description names affinity to 5-HT2A receptors, read-out: IC50.

Like-named read-outs stand apart in the source and are kept apart here.

5-HT2A receptors, sequence (P14842 whole entry): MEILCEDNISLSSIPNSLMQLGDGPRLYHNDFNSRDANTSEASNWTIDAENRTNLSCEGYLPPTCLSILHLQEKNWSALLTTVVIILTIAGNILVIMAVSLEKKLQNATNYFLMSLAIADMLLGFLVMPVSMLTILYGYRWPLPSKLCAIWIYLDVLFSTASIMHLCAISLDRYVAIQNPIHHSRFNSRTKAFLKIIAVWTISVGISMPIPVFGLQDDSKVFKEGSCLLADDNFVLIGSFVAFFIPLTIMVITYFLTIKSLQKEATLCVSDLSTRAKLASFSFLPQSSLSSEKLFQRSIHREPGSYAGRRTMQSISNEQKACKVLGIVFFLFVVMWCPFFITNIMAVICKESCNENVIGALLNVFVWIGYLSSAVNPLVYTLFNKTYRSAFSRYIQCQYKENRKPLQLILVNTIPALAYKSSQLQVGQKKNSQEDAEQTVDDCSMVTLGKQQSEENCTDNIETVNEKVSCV

Usually IC50 stands for the concentration at which inhibition is half-maximal. Take `c1ccc(-c2ccc(-n3ncc(CN4CCNCC4)c3-c3ccccn3)cc2)cc1` [(60), 1-(1-Biphenyl-4-yl-5-pyridin-2-yl-1H-pyrazol-4-ylmethyl)-piperazine]: the IC50 under setting [1] came out at 200 nM.
Consider `Cc1cccc(-c2c(CN3CCN(C)CC3)cnn2-c2ccc(-c3ccc(F)cc3)cc2)c1` [Example 940, 1-[1-(4′-Fluorobiphenyl-4-yl)-5-m-tolyl-1H-pyrazol-4-ylmethyl]-4-methylpiperazine], for which, where the note is “read-out: HT2A IC50”, the IC50 turned out to be 37 nM.
The same measure, in the same setting: the figure for `OC1CCN(Cc2cnn(-c3ccc(C(F)(F)F)cn3)c2-c2ccccc2F)C1` (centres unmarked) [Example 1050, 1-[5-(2-Fluorophenyl)-1-(5-trifluoro-methylpyridin-2-yl)-1H-pyrazol-4-ylmethyl]pyrrolidin-3-ol] is 390 nM.
With `CN1CCC(N(C)Cc2cnn(-c3ccc(-c4ccccc4)cc3)c2-c2ccccc2F)CC1` [(39), [1-Biphenyl-4-yl-5-(2-fluorophenyl)-1H-pyrazol-4-ylmethyl]-methyl-(1-methylpiperidin-4-yl)amine], the IC50 under setting [1] came to 160 nM.
The same measure, in the same setting: the figure for `CN1CCN(Cc2cnn(-c3ccc(-c4ccc(F)cc4)cc3)c2-c2ccccc2)CC1` [(97), 1-[1-(4′-Fluorobiphenyl-4-yl)-5-phenyl-1H-pyrazol-4-ylmethyl]-4-methylpiperazine] is 13 nM.
As for `COC(=O)CCNCc1cnn(-c2ccc(-c3ccccc3)cc2)c1-c1ccccc1F` [Example 1014, Methyl 3-{[1-biphenyl-4-yl-5-(2-fluoro-phenyl)-1H-pyrazol-4-ylmethyl]amino}propionate], the IC50 (read-out: HT2A IC50) was 210 nM.
Regarding `CCN(CC)CC1CCCCN1Cc1cnn(-c2ccc(-c3ccccc3)cc2)c1-c1ccccc1F` (centres unmarked) [(51), {1-[1-Biphenyl-4-yl-5-(2-fluorophenyl)-1H-pyrazol-4-ylmethyl]-piperidin-2-ylmethyl}diethylamine], the IC50 under setting [1] came to 270 nM.
In the case of `CC1CCN(Cc2cnn(-c3ccc(-c4ccccc4)cc3)c2-c2ccccc2F)CC1` [(49), 1-[1-Biphenyl-4-yl-5-(2-fluorophenyl)-1H-pyrazol-4-ylmethyl]-4-methylpiperidine], the IC50 under setting [1] amounted to 130 nM.
The same measure, in the same setting: as for `Fc1ccccc1-c1c(CNC2CCN(Cc3ccccc3)C2)cnn1-c1ccc(-c2ccccc2)cc1` (centres unmarked) [(161), (1-Benzylpyrrolidin-3-yl)-[1-biphenyl-4-yl-5-(2-fluorophenyl)-1H-pyrazol-4-ylmethyl]amine], the figure is 310 nM; as for `Fc1ccc(F)c(-c2ccc(-n3ncc(CNCC4CCCO4)c3-c3ccccc3F)cc2)c1` (centres unmarked) [(122), [1-(2′,5′-Difluorobiphenyl-4-yl)-5-(2-fluorophenyl)-1H-pyrazol-4-ylmethyl](tetrahydrofuran-2-ylmethyl)amine], 370 nM.
In the case of `CN1CCN(Cc2cnn(-c3ccc(-c4ccccc4)cc3)c2C(F)(F)F)CC1` [(67)], the IC50 under setting [1] amounted to 260 nM.
The same measure, in the same setting: as for `CN1CCN(Cc2cnn(-c3ccc(-c4ccncc4)cc3)c2-c2ccccc2F)CC1` [(121), 1-[5-(2-Fluorophenyl)-1-(4-pyridin-4-ylphenyl)-1H-pyrazol-4-ylmethyl]-4-methylpiperazine], the figure is 77 nM.
Same read-out and setting: the figure for `CN1CC2CC1CN2Cc1cnn(-c2ccc(-c3ccccc3)cc2)c1-c1ccccc1F` (centres unmarked) [(109), 2-[1-Biphenyl-4-yl-5-(2-fluorophenyl)-1H-pyrazol-4-ylmethyl]-5-methyl-2,5-diazabicyclo[2.2.1]heptane] is 94 nM.
On to `Cc1cnc(NCc2cnn(-c3ccc(-c4ccccc4)cc3)c2-c2ccccc2F)s1` [Example 1046, [1-Biphenyl-4-yl-5-(2-fluorophenyl)-1H-pyrazol-4-ylmethyl]-(5-methylthiazol-2-yl)amine], for which the IC50 (read-out: HT2A IC50) came out at 370 nM.
In the case of `Cn1cccc1CNCc1cnn(-c2ccc(-c3ccccc3)cc2)c1-c1ccccc1` [(171), (1-Biphenyl-4-yl-5-phenyl-1H-pyrazol-4-ylmethyl)-(1-methyl-1H-pyrrol-2-ylmethyl)amine], the IC50 under setting [1] turned out to be 26 nM.
Consider `Fc1ccccc1-c1c(CN2CC=CCC2)cnn1-c1ccc(-c2ccccc2)cc1` [Example 998, 1-[1-Biphenyl-4-yl-5-(2-fluorophenyl)-1H-pyrazol-4-ylmethyl]-1,2,3,6-tetrahydro-pyridine], for which the IC50 (read-out: HT2A IC50) came to 170 nM.
Same read-out and setting: as for `CN1CCN(Cc2cnn(-c3ccc(-c4ccc(F)cc4)cc3)c2-c2cccc(F)c2)CC1` [Example 911, 1-[1-(4′-Fluorobiphenyl-4-yl)-5-(3-fluoro-phenyl)-1H-pyrazol-4-ylmethyl]-4-methyl-piperazine], the figure is 19 nM.
Take `CN1CCN(Cc2cnn(-c3ccc(-c4ccccc4)cc3)c2-c2cccnc2)CC1` [(113), 1-(1-Biphenyl-4-yl-5-pyridin-3-yl-1H-pyrazol-4-ylmethyl)-4-methylpiperazine]: the IC50 under setting [1] stood at 290 nM.
As to `O=C(CN1CCN(Cc2cnn(-c3ccc(-c4ccccc4)cc3)c2-c2ccccc2F)CC1)N1CCCC1` [Example 1038, 2-{4-[1-Biphenyl-4-yl-5-(2-fluoro-phenyl)-1H-pyrazol-4-ylmethyl]piperazin-1-yl}-1-pyrrolidin-1-ylethanone], under “read-out: HT2A IC50”, the IC50 was determined as 311 nM.
Take `N#CC(NCc1cnn(-c2ccc(-c3ccccc3)cc2)c1-c1ccccc1F)C(N)=O` (centres unmarked) [(136), 2-{[1-Biphenyl-4-yl-5-(2-fluorophenyl)-1H-pyrazol-4-ylmethyl]-amino}-2-cyanoacetamide]: the half-inhibitory concentration (IC50) under setting [1] is 130 nM.
Turning to `Fc1ccccc1-c1c(CNC2CN3CCC2CC3)cnn1-c1ccc(-c2ccccc2)cc1` (centres unmarked) [Example 991, (1-Azabicyclo[2.2.2]oct-3-yl)-[1-biphenyl-4-yl-5-(2-fluorophenyl)-1H-pyrazol-4-ylmethyl]-amine], for the setting “read-out: HT2A IC50”, the IC50 was determined as 140 nM.
Take `CN1CCN(Cc2cnn(-c3ccc(-c4cc(F)ccc4F)nc3)c2-c2ccccc2F)CC1` [(147), 1-[1-[6-(2,5-Difluorophenyl)pyridin-3-yl]-5-(2-fluorophenyl)-1H-pyrazol-4-ylmethyl]-4-methylpiperazine]: under setting [1], the half-inhibitory concentration (IC50) came out at 430 nM.
Turning to `CC(C)(C)OC(=O)CNCc1cnn(-c2ccc(-c3ccccc3)cc2)c1-c1cccnc1` [(179), tert-Butyl [(1-biphenyl-4-yl-5-pyridin-3-yl-1H-pyrazol-4-ylmethyl)amino]acetate], under setting [1], the IC50 came to 1000 nM.
Same read-out and setting: the figure for `O=C1CCCN1CCCNCc1cnn(-c2ccc(-c3ccccc3)cc2)c1-c1ccccc1F` [(151), 1-(3-{[1-Biphenyl-4-yl-5-(2-fluorophenyl)-1H-pyrazol-4-ylmethyl]amino}propyl)pyrrolidin-2-one] is 64 nM.
For the compound `Cc1cccc(-c2ccc(-n3ncc(CN4CCN(C)CC4)c3-c3ccccc3F)cc2)c1` [Example 1017, 1-[5-(2-Fluorophenyl)-1-(3′-methylbiphenyl-4-yl)-1H-pyrazol-4-ylmethyl]-4-methylpiperazine], the IC50 (read-out: HT2A IC50) was 220 nM.
Still for that read-out and setting: the figure for `Fc1ccccc1-c1c(CNCc2cccnc2)cnn1-c1ccc(-c2ccccc2)cc1` [Example 1004, [1-Biphenyl-4-yl-5-(2-fluorophenyl)-1H-pyrazol-4-ylmethyl]pyridin-3-ylmethylamine] is 180 nM.
With `CC(=O)OCc1cnn(-c2ccc(-c3ccccc3)cc2)c1-c1ccccc1F` [(22), 1-Biphenyl-4-yl-5-(2-fluorophenyl)-1H-pyrazol-4-ylmethyl acetate], the IC50 under setting [1] was determined as 1400 nM.
Consider `CN(C)C1CCN(Cc2cnn(-c3ccc(-c4ccccc4)cc3)c2-c2ccccc2F)C1` (centres unmarked) [Example 936, {1-[1-Biphenyl-4-yl-5-(2-fluoro-phenyl)-1H-pyrazol-4-ylmethyl]pyrrolidin-3-yl}dimethyl-amine], for which the IC50 (read-out: HT2A IC50) stood at 35 nM.
Turning to `CN1CCN(Cc2cnn(-c3ccc(-c4ccccc4F)cc3)c2-c2ccco2)CC1` [(103), 1-[1-(2′-Fluorobiphenyl-4-yl)-5-furan-2-yl-1H-pyrazol-4-ylmethyl]-4-methylpiperazine], under setting [1], the 50% inhibitory concentration (IC50) is 25 nM.
As for `CN1CCN(Cc2cnn(-c3ccc(-c4cccc(C#N)c4)cc3)c2-c2ccccc2F)CC1` [Example 993, 4′-[5-(2-Fluorophenyl)-4-(4-methylpiperazin-1-ylmethyl)pyrazol-1-yl]biphenyl-3-carbonitrile], the IC50 (read-out: HT2A IC50) was determined as 140 nM.
Turning to `CCN1CCN(Cc2cnn(-c3ccc(-c4ccc(F)cc4)cc3)c2-c2cccc(OC)c2)CC1` [Example 938, 1-Ethyl-4-[1-(4′-fluorobiphenyl-4-yl)-5-(3-methoxyphenyl)-1H-pyrazol-4-ylmethyl]-piperazine], the IC50 (read-out: HT2A IC50) was found to be 35 nM.
Regarding `COc1ccccc1-c1c(CN2CCN(C)CC2)cnn1-c1ccc(-c2cc(F)ccc2F)cc1` [(71), 1-[1-(2′,5′-Difluorobiphenyl-4-yl)-5-(2-methoxyphenyl)-1H-pyrazol-4-ylmethyl]-4-methylpiperazine], the IC50 under setting [1] is 77 nM.
On the same count and under the same terms, as for `Fc1ccc(-c2ccc(-n3ncc(CNc4cnccn4)c3-c3ccccc3F)cn2)cc1` [(196), {5-(2-Fluorophenyl)-1-[6-(4-fluorophenyl)pyridin-3-yl]-1H-pyrazol-4-ylmethyl}pyrazin-2-ylamine], the figure is 1200 nM.
On the same count and under the same terms, as for `CN1CCN(Cc2cnn(-c3ccc(-c4ccccc4F)cc3)c2-c2ccc(F)cc2)CC1` [(99), 1-[1-(2′-Fluorobiphenyl-4-yl)-5-(4-fluorophenyl)-1H-pyrazol-4-ylmethyl]-4-methylpiperazine], the figure is 210 nM.
As for `CN1CCN(Cc2cnn(-c3ccc(-c4cccc(Cl)c4)cc3)c2-c2ccccc2F)CC1` [Example 963, 1-[1-(3′-Chlorobiphenyl-4-yl)-5-(2-fluoro-phenyl)-1H-pyrazol-4-ylmethyl]-4-methyl-piperazine], the IC50 (read-out: HT2A IC50) stood at 69 nM.
Regarding `Fc1ccccc1-c1c(CNCc2cccnc2)cnn1-c1ccc(-c2ccccc2)cc1` [(89), [1-Biphenyl-4-yl-5-(2-fluorophenyl)-1H-pyrazol-4-ylmethyl]-pyridin-3-ylmethylamine], the IC50 under setting [1] stood at 180 nM.
The same measure, in the same setting: the figure for `Fc1ccccc1-c1c(CN2CCNCC2)cnn1-c1ccc(-c2ccccc2)nc1` [(56), 1-[5-(2-Fluorophenyl)-1-(6-phenylpyridin-3-yl)-1H-pyrazol-4-ylmethyl]piperazine] is 150 nM.
As for “1-Biphenyl-4-yl-5-(2-fluorophenyl)-4-(2-methoxy-methylpyrrolidin-1-ylmethyl)-1H-pyrazole [(48)]”, under setting [1], the IC50 came to 510 nM.

These data come from patent US20060264419A1 (priority 2003, published 2006).
